A word on the IC50: it is the concentration needed to halve the response being measured.

Molecules are shown by their SMILES. Activity calls are given as the source filed them. No rule for the calls is given here. Where only a bound is given, the exact number is not on record here.

The subject of the first assay is T. cruzi-infected H9C2 cardiomyocytes, high-content imaging. In words: intracellular T. cruzi amastigote inhibition, imaging, H9C2 host cardiomyocytes, host toxicity (AID 1159565).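 Also: infected cells incubated 72 h after plating.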
Conditions: not given
Turning to `CCOc1ccc(CC(=O)N2c3ccccc3CC2C(=O)NC)cc1` (centres undefined), the IC50 was > 50 µM (inactive).
Consider `CN(Cc1ccccc1)Cc1nnnn1C1CCN(Cc2ccc(-n3ccnc3)cc2)CC1`, for which the 50% inhibitory concentration (IC50) was 0.32 µM.
For `CC(C)N(C(=O)CN1C(=O)C(N)C(=O)N(c2ccccc2)c2ccccc21)c1ccccc1` (centres undefined), the concentration for half-maximal inhibition (IC50) is 0.32 µM.
On to `Oc1cccnc1-c1n[nH]c(Cc2ccccc2)n1`, for which the half-inhibitory concentration (IC50) was 7.9 µM.
Regarding `Cc1cc(C#N)c([N+](=O)[O-])cc1Br`, the IC50 is 0.32 µM.
With `COc1cccc(Nc2cc(C)nc(-c3ccccn3)n2)c1`, the IC50 was 13 µM.
Same read-out and setting: next, `Cc1c(C#N)c([N+](=O)[O-])nn1Cc1cccc(Cl)c1Cl`: 0.1 µM; `O=C(COc1ccccc1)Nc1ccccc1C(=O)Nc1nccs1`: > 50 µM (inactive); `Cc1cc(Nc2cc(C3CC3)[nH]n2)nc(N2CCCC2)n1`: 0.1 µM.
As to `CC(C)C[C@H](NC(=O)c1csc(-c2cccs2)n1)C(=O)NC1(C#N)CC1`, the IC50 is > 50 µM (inactive).
For `COc1ccc(C(=O)Nc2cc(C(F)(F)F)ccc2N2CCOCC2)c(OC)c1`, the IC50 is 0.79 µM.
Same read-out and setting: to `CCC(=O)Nc1ccc(C(=O)Nc2ccccc2-c2ccccc2)cc1` belongs 0.5 µM; to `COc1ccc(OC)c(S(=O)(=O)N(Cc2c(F)cccc2F)[C@@H]2CCN(C#N)C2)c1`, 13 µM; to `CC1=C(C(=O)Nc2ccc(Cl)cc2)C(c2ccncc2)n2ncc(C(=O)Nc3ccccc3)c2N1` (centres undefined), 0.02 µM.
Still for that read-out and setting: to `COc1ccc(S(=O)(=O)NC(C)C)cc1Nc1ncc(-c2cccc(F)c2)cn1` belongs 0.4 µM; to `CC(=O)Nc1cccc(Nc2ncnc3nc[nH]c23)c1`, 40 µM; to `O=c1cc(NCCCNCc2cc(C(F)(F)F)cs2)[nH]c2ccccc12`, > 50 µM (inactive).
As to `O=C(Nc1ccc(S(=O)(=O)N2CCCC2)cc1)c1ccc([N+](=O)[O-])s1`, the IC50 is 0.2 µM.
For the molecule `CCS(=O)(=O)Nc1ccc(C2=NN(C(=O)c3cccs3)C(c3ccccc3OC)C2)cc1` (centres undefined), the IC50 was > 50 µM (inactive).
On the same count and under the same terms, next, `Cc1[nH]nc(Nc2ccnc3[nH]ccc23)c1C`: > 50 µM (inactive).
On the same count and under the same terms, to `O=C(Nc1nc(-c2ccccn2)cs1)c1ccccc1-n1cnnn1` belongs 3.2 µM; to `O=c1cc(NCCCNC2CCOc3c(I)cc(Cl)cc32)[nH]c2ccccc12` (centres undefined), 0.32 µM.
Same read-out and setting: next, `COc1ccc(-c2cc(C)no2)cc1S(=O)(=O)Nc1ccc(F)c(Cl)c1`: 3.2 µM.

Still in this assay, the particulars now being: measured here: H9C2 host cell toxicity.
As to `CCOc1ccc(CC(=O)N2c3ccccc3CC2C(=O)NC)cc1` (centres undefined), the IC50 was greater than 50 µM.
Turning to `CN(Cc1ccccc1)Cc1nnnn1C1CCN(Cc2ccc(-n3ccnc3)cc2)CC1`, the half-inhibitory concentration (IC50) was greater than 50 µM.
`CC(C)N(C(=O)CN1C(=O)C(N)C(=O)N(c2ccccc2)c2ccccc21)c1ccccc1` (centres undefined) gave an IC50 greater than 50 µM.
The molecule `Oc1cccnc1-c1n[nH]c(Cc2ccccc2)n1` gave a half-inhibitory concentration (IC50) of 16 µM.
The same measure, in the same setting: to `Cc1cc(C#N)c([N+](=O)[O-])cc1Br` belongs 50 µM; to `COc1cccc(Nc2cc(C)nc(-c3ccccn3)n2)c1`, 5 µM.
`Cc1c(C#N)c([N+](=O)[O-])nn1Cc1cccc(Cl)c1Cl`: the half-maximal inhibitory concentration (IC50) is greater than 50 µM.
Same read-out and setting: next, `O=C(COc1ccccc1)Nc1ccccc1C(=O)Nc1nccs1`: greater than 50 µM; `Cc1cc(Nc2cc(C3CC3)[nH]n2)nc(N2CCCC2)n1`: 0.25 µM.
Same read-out and setting: next, `CC(C)C[C@H](NC(=O)c1csc(-c2cccs2)n1)C(=O)NC1(C#N)CC1`: greater than 50 µM; `COc1ccc(C(=O)Nc2cc(C(F)(F)F)ccc2N2CCOCC2)c(OC)c1`: greater than 50 µM.
For `CCC(=O)Nc1ccc(C(=O)Nc2ccccc2-c2ccccc2)cc1`, the IC50 was greater than 50 µM.
Still for that read-out and setting: to `COc1ccc(OC)c(S(=O)(=O)N(Cc2c(F)cccc2F)[C@@H]2CCN(C#N)C2)c1` belongs 16 µM; to `CC1=C(C(=O)Nc2ccc(Cl)cc2)C(c2ccncc2)n2ncc(C(=O)Nc3ccccc3)c2N1` (centres undefined), greater than 50 µM; to `COc1ccc(S(=O)(=O)NC(C)C)cc1Nc1ncc(-c2cccc(F)c2)cn1`, greater than 50 µM.
In the case of `CC(=O)Nc1cccc(Nc2ncnc3nc[nH]c23)c1`, the half-inhibitory concentration (IC50) is greater than 50 µM.
For `O=c1cc(NCCCNCc2cc(C(F)(F)F)cs2)[nH]c2ccccc12`, the IC50 stood at 32 µM.
Still for that read-out and setting: next, `O=C(Nc1ccc(S(=O)(=O)N2CCCC2)cc1)c1ccc([N+](=O)[O-])s1`: 1.6 µM.
Consider `CCS(=O)(=O)Nc1ccc(C2=NN(C(=O)c3cccs3)C(c3ccccc3OC)C2)cc1` (centres undefined), for which the 50% inhibitory concentration (IC50) is greater than 50 µM.
On the same count and under the same terms, next, `Cc1[nH]nc(Nc2ccnc3[nH]ccc23)c1C`: greater than 50 µM.
Turning to `O=C(Nc1nc(-c2ccccn2)cs1)c1ccccc1-n1cnnn1`, the IC50 was 5 µM.
The same measure, in the same setting: to `O=c1cc(NCCCNC2CCOc3c(I)cc(Cl)cc32)[nH]c2ccccc12` (centres undefined) belongs 25 µM; to `COc1ccc(-c2cc(C)no2)cc1S(=O)(=O)Nc1ccc(F)c(Cl)c1`, 50 µM.

Still in this assay, the particulars now being: measured here: amastigotes per cell.
As for `CCOc1ccc(CC(=O)N2c3ccccc3CC2C(=O)NC)cc1` (centres undefined), the concentration for half-maximal inhibition (IC50) is greater than 50 µM.
Still for that read-out and setting: next, `CN(Cc1ccccc1)Cc1nnnn1C1CCN(Cc2ccc(-n3ccnc3)cc2)CC1`: 0.25 µM; `CC(C)N(C(=O)CN1C(=O)C(N)C(=O)N(c2ccccc2)c2ccccc21)c1ccccc1` (centres undefined): 0.4 µM; `Oc1cccnc1-c1n[nH]c(Cc2ccccc2)n1`: 6.3 µM.
Molecule `Cc1cc(C#N)c([N+](=O)[O-])cc1Br` came in with a half-inhibitory concentration (IC50) of 0.05 µM.
On the same count and under the same terms, next, `COc1cccc(Nc2cc(C)nc(-c3ccccn3)n2)c1`: 7.9 µM; `Cc1c(C#N)c([N+](=O)[O-])nn1Cc1cccc(Cl)c1Cl`: 0.04 µM.
Still for that read-out and setting: to `O=C(COc1ccccc1)Nc1ccccc1C(=O)Nc1nccs1` belongs greater than 50 µM; to `Cc1cc(Nc2cc(C3CC3)[nH]n2)nc(N2CCCC2)n1`, 0.079 µM.
The same measure, in the same setting: next, `CC(C)C[C@H](NC(=O)c1csc(-c2cccs2)n1)C(=O)NC1(C#N)CC1`: 20 µM; `COc1ccc(C(=O)Nc2cc(C(F)(F)F)ccc2N2CCOCC2)c(OC)c1`: 0.32 µM; `CCC(=O)Nc1ccc(C(=O)Nc2ccccc2-c2ccccc2)cc1`: 0.25 µM.
For `COc1ccc(OC)c(S(=O)(=O)N(Cc2c(F)cccc2F)[C@@H]2CCN(C#N)C2)c1`, the IC50 was determined as 6.3 µM.
The same measure, in the same setting: to `CC1=C(C(=O)Nc2ccc(Cl)cc2)C(c2ccncc2)n2ncc(C(=O)Nc3ccccc3)c2N1` (centres undefined) belongs 0.02 µM.
The molecule `COc1ccc(S(=O)(=O)NC(C)C)cc1Nc1ncc(-c2cccc(F)c2)cn1` displayed an IC50 of 0.32 µM.
In turn, `CC(=O)Nc1cccc(Nc2ncnc3nc[nH]c23)c1` gave a 50% inhibitory concentration (IC50) of 25 µM.
Regarding `O=c1cc(NCCCNCc2cc(C(F)(F)F)cs2)[nH]c2ccccc12`, the IC50 amounted to 5 µM.
The same measure, in the same setting: next, `O=C(Nc1ccc(S(=O)(=O)N2CCCC2)cc1)c1ccc([N+](=O)[O-])s1`: 0.2 µM; `CCS(=O)(=O)Nc1ccc(C2=NN(C(=O)c3cccs3)C(c3ccccc3OC)C2)cc1` (centres undefined): greater than 50 µM.
`Cc1[nH]nc(Nc2ccnc3[nH]ccc23)c1C` had a concentration for half-maximal inhibition (IC50) greater than 50 µM.
Same read-out and setting: to `O=C(Nc1nc(-c2ccccn2)cs1)c1ccccc1-n1cnnn1` belongs 2 µM; to `O=c1cc(NCCCNC2CCOc3c(I)cc(Cl)cc32)[nH]c2ccccc12` (centres undefined), 0.16 µM.
Still for that read-out and setting: next, `COc1ccc(-c2cc(C)no2)cc1S(=O)(=O)Nc1ccc(F)c(Cl)c1`: 4 µM.

For the origin of these results see PubChem BioAssay AID1159565 (GlaxoSmithKline (GSK), 2015).
